Assay results: paper PMC10504495 (iScience, 2023)
Blank lines part the entries; values can stand above or below the compound they belong to.

Columns and labels:
[1] = biological target: T1, SIRT1 (Homo sapiens, UniProt Q96EB6); assay: HPLC/LC-MS delactylation (erased ratio); format: biochemical; conditions: 100 μM peptide, 200 nM SIRT1, 37°C, 3 h
T1 construct: the human SIRT1 core region (234–505 aa); SUMO (pET-28a-sumo vector) (cleaved yes); made in house; host or cells: E. coli BL21-CodonPlus (DE3)-RIL
T1 sequence (Q96EB6 234-505): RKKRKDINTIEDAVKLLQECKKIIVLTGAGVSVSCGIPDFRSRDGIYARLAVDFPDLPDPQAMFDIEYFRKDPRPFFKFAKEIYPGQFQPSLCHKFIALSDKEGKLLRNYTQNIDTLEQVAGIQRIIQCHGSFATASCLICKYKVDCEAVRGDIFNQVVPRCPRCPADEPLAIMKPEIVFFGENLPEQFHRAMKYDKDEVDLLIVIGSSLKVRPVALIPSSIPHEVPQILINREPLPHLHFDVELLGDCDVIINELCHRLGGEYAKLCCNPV
Excerpt: (§1) To prepare for the enzymatic assays and crystallization, the human SIRT1 core region (234–505 aa), SIRT2 (50–356 aa), SIRT5 (32–302), and full-length SIRT7 were cloned into a pET-28a-sumo vector, while SIRT3 (118–399 aa) and full-length SIRT6 were cloned into a pET-N-6xHis-TEV (Tobacco etch virus) vector. These vectors were then transformed and expressed in BL21-CodonPlus (DE3)-RIL competent cells. The recombinant proteins were purified via affinity and ion exchange purification, followed by gel filtration. To remove tags during purification, TEV, and sumo protease were utilized. The purified recombinant human Sirtuins were then concentrated to a final concentration of 10 mg/mL and stored at −80°C freezer for use in the following experiments.
(§2) LC-MS analysis was performed to test and verify the delactylation activity of Sirtuins. The lactyl peptides used in LC-MS assay was added 2 additional tryptophan residues at the N- and C- terminus to enhance the HPLC absorption sensitiveness. After incubating the peptides with Sirtuins/HDAC3 at 37°C for 3 h. The reaction was halted by methanol, and LC-MS was used to analyze the erased ratio of different peptides.

[2] = test system: HDAC3/NCOR2; assay: HPLC/LC-MS delactylation (erased ratio); format: biochemical; conditions: 100 μM peptide, 200 nM HDAC3/NCOR2, 37°C, 3 h; in comparison with Sirtuins
Experimental: as §2

[3] = biological target: T2, SIRT3 (Homo sapiens, UniProt Q9NTG7); assay: NAD+ consumption/cycling assay; format: biochemical; conditions: for delactylation activity in words: NAD+ consumption/cycling, 3 h, Figures 1A, S2
T2 construct: SIRT3 (118–399 aa); 6xHis with TEV site (pET-N-6xHis-TEV vector) (N, cleaved yes); made in house; host or cells: E. coli BL21-CodonPlus (DE3)-RIL
T2 sequence (Q9NTG7 118-399): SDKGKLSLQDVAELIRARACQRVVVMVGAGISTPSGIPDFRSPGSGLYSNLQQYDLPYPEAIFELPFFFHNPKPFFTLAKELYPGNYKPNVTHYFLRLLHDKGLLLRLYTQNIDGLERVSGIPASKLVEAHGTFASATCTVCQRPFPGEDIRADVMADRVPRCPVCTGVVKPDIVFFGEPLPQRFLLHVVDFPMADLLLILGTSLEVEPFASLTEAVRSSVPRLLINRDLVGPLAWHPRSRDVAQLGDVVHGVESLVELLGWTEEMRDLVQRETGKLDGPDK
Experimental: To screen the delactylation activity of Sirtuins, we employed a modified[35] NAD^+ cycling assay to measure the amount of unused NAD^+ levels after Sirtuins’ consumption reactions. This assay involves the conversion of NAD^+ to NADH by alcohol dehydrogenase, followed by the conversion of NADH to NAD^+ by NADH oxidoreductase, diaphorase with resazurin as an electron acceptor. The reduced resazurin is then measured as resorufin, which has a high fluorescence characteristic.[36]
To perform the NAD^+ consumption assay, 50 μM recombinant Sirtuins were co-incubated with 500 μM Kla peptides and 100 μM NAD^+ in 150 NaCl, 20 mM Tris (pH = 7.5) buffer for 3 h or overnight at 37°C. Then, hydrochloric acid, final concentration at 150 mM, was added to terminate the reaction. As for the cycling assay, 200 μL reaction buffer containing 100 mM Na2HPO4 (pH = 8.0), 10 μM resazurin, 10 μM flavin mononucleotide (FMN), 1% absolute ethanol, 66.5 μg/mL alcohol dehydrogenase and 5 μg/mL diaphorase was simultaneously mixed with 10 μL of NAD^+ consumption mixtures in 96-well white plate. Then, the plate was immediately measured by fluorescence spectrophotometer under excitation 549 nm, emission 576 nm condition.

[4] = biological target: T2, SIRT3; assay: Kinetic study by HPLC, Lineweaver-Burk; format: biochemical; conditions: 10-200 μM peptide, 200 nM SIRT3, Tris pH 7.4, 37°C, 40 min, HPLC 280 nm, 3 replicates
Excerpt: as §1
To perform the kinetic study, the erasing rate was determined using the HPLC method. The KM and kcat values were then computed using the Lineweaver-Burk method.[37] […] The erased rate was evaluated by HPLC, and integrations at 280 nm were recorded to give the erased ratio. The kinetic parameters were then obtained using the formula: 1/v=(KM/Vmax)(1/[S])+1/Vmax .

[5] = biological target: T2, SIRT3; assay: fluorogenic probe delactylation assay; format: biochemical
Experimental: (§3) To determine the absorption spectra, 10 μM p-H4K16laNBD was incubated with or without 0.2 μM SIRT3 and 100 μM NAD^+ for 2 h in 20 mM HEPES buffer (pH = 8.0). For the fluorescence assay, the fluorescence was detected using an excitation wavelength of 480 nm, and the emitted fluorescence signal was measured over the range of 520–740 nm using a microplate reader (Molecular Devices SpectraMax ID5 Microplate Reader).
(§4) For the HPLC analysis, we incubated 10 μM p-H4K16laNBD with 0.2 μM SIRT3 and 100 μM NAD^+ in 20 mM HEPES buffer (pH = 8.0) for 2 h. We also performed time-dependent fluorescence measurements by incubating 10 μM p-H4K16laNBD with 0.2 μM SIRT3 and 100 μM NAD^+ or 0.1 μM HDAC3 in 20 mM HEPES buffer (pH = 8.0) for different time intervals. The fluorescence was measured using an excitation wavelength of 480 nm, and the emitted fluorescence signal at 550 nm was measured using a microplate reader (Molecular Devices SpectraMax ID5 Microplate Reader).
(§5) To determine the fluorescence change after incubating p-H4K16laNBD with various enzymes (HDAC3, SIRT1-3, SIRT5-7), we incubated 10 μM p-H4K16laNBD with 0.2 μM SIRT1-7 (except SIRT4) in 20 mM HEPES buffer (pH = 8.0) containing 100 μM NAD^+ for 2 h. For positive control, we used 0.1 μM HDAC3. The fluorescence was measured using an excitation wavelength of 480 nm, and the emitted fluorescence signal at 550 nm was measured using a microplate reader (Molecular Devices SpectraMax ID5 Microplate Reader).

[6] = biological target: T3, HDAC3 (Homo sapiens, UniProt O15379); assay: fluorogenic probe delactylation assay; format: biochemical; conditions: 10 μM probe
T3 construct: purchased Abcam ab42631
T3 sequence (O15379 whole entry): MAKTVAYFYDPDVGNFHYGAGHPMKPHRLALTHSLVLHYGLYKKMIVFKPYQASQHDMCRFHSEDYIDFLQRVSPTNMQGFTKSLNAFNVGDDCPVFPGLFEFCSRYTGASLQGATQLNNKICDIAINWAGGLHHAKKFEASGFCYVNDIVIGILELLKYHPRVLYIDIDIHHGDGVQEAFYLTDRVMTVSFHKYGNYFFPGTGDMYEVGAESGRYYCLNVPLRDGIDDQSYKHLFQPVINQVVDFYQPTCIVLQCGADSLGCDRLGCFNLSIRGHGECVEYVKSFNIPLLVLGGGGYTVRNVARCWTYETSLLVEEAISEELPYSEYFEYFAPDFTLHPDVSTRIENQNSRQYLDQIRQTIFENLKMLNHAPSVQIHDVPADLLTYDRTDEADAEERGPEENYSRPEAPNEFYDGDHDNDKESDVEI
T3 sequence (Q9Y618 395-489 partner limits assumed): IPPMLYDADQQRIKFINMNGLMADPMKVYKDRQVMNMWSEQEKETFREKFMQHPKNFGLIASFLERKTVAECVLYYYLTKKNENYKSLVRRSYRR
Experimental: as §3, §4, §5

[7] = test system: SIRT5; assay: fluorogenic probe delactylation assay; format: biochemical, human; conditions: 10 μM probe, 100 μM NAD+, HEPES pH 8.0, 37°C, 2 h
Experimental: as §5

[8] = test system: SIRT7; assay: fluorogenic probe delactylation assay; format: biochemical, human; conditions: 10 μM probe, 100 μM NAD+, HEPES pH 8.0, 37°C, 2 h
Experimental: as §5

[9] = test system: SIRT6; assay: fluorogenic probe delactylation assay; format: biochemical, human; conditions: 10 μM probe, 100 μM NAD+, HEPES pH 8.0, 37°C, 2 h
Experimental: as §5

[10] = biological target: T4, SIRT2 (Homo sapiens, UniProt Q8IXJ6); assay: fluorogenic probe delactylation assay; format: biochemical; conditions: 10 μM probe, 100 μM NAD+, HEPES pH 8.0, 37°C, 2 h
T4 construct: SIRT2 (50–356 aa); SUMO (pET-28a-sumo vector) (cleaved yes); made in house; host or cells: E. coli BL21-CodonPlus (DE3)-RIL
T4 sequence (Q8IXJ6 50-356): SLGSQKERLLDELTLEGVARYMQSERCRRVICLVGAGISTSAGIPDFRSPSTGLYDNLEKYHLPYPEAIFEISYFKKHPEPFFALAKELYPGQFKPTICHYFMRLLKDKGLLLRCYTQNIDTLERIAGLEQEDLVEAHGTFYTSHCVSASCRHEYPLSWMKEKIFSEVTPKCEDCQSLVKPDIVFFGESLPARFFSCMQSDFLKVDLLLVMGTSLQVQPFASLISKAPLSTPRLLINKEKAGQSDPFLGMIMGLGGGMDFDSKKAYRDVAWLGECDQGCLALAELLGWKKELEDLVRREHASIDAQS
Experimental: as §5

[11] = biological target: T1, SIRT1; assay: fluorogenic probe delactylation assay; format: biochemical; conditions: 10 μM probe, 100 μM NAD+, HEPES pH 8.0, 37°C, 2 h
Experimental: as §5

[12] = absorption/fluorescence spectra of the probe; format: physicochemical; conditions: 10 μM probe
Experimental: as §3

[13] = biological target: human SIRT1 core region (234-505 aa) (human) (UniProt Q96EB6); assay: ITC; 40 uL of 2 mM peptide in 20 injections titrated into 200 uL of 30 uM Sirtuin in the cell; 25 C; Tris pH 7.5, 150 mM NaCl; MicroCal PEAQ-ITC analysis software
[14] = biological target: human SIRT2 (50-356 aa) (human) (UniProt Q8IXJ6); assay: as above
[15] = biological target: T2, SIRT3; assay: HPLC/LC-MS delactylation (erased ratio); format: biochemical; conditions: 100 μM peptide, 200 nM SIRT3, 37°C, 3 h; compared with other Sirtuins
Excerpt: as §1, §2

[16] = biological target: T4, SIRT2; assay: HPLC/LC-MS delactylation (erased ratio); format: biochemical; conditions: 100 μM peptide, 200 nM SIRT2, 37°C, 3 h
Excerpt: as §1, §2

[17] = test system: lysine lactylation; conditions: cells, 24 h treatment; cited from earlier work
Excerpt: Chemical affinity-based probes are powerful tools that convert weak protein-ligand interactions into robust covalent chemical linkages, thus enabling the capture of transient interactions. […] We tried to use this la ...

[18] = biological target: T1, SIRT1; assay: NAD+ consumption/cycling assay; format: biochemical; conditions: overnight (≥12 h)
Excerpt: as §1
To screen the delactylation activity of Sirtuins, we employed a modified[35] NAD^+ cycling assay to measure the amount of unused NAD^+ levels after Sirtuins’ consumption reactions. […] The reduced resazurin is then measured as resorufin, which has a high fluorescence characteristic.[36]
To perform the NAD^+ consumption assay, 50 μM recombinant Sirtuins were co-incubated with 500 μM Kla peptides and 100 μM NAD^+ in […], 20 mM Tris (pH = 7.5) buffer for 3 h or overnight at 37°C. […] Then, the plate was immediately measured by fluorescence spectrophotometer under excitation 549 nm, emission 576 nm condition.

Compound: KGGAK (L/D lactic acid) RHRK [H4K16la, lactyl-lysine H4K16 peptide; NAD+ assay and ITC]
- hydrolytic activity, HPLC [1]: slight hydrolytic activity
- in vitro delactylation activity, HPLC [2]: highest in vitro delactylation activity
- delactylation activity in words [3]: higher delactylation activity
- NAD+ consumption overnight in words ([3]; overnight (≥12 h)): consumed much higher level of NAD^+
- kcat [4]: 0.08 ± 0.008 s⁻¹
- Vmax ([4]; Lineweaver-Burk): 0.925 ± 0.101 µmol/L/min

- first-order rate constant k, SIRT3 ([5]; 10 μM probe, 0.2 μM SIRT3, 100 μM NAD+, 20 mM HEPES pH 8.0, λex 480, λem 550 nm): 0.0059 min⁻¹
- fluorescence response, SIRT3 ([5]; 10 μM probe, SIRT3, 100 μM NAD+, HEPES pH 8.0, 37°C, 2 h): fluoresced at 550 nm
- first-order rate constant k, HDAC3 ([6]; 0.1 μM HDAC3, 20 mM HEPES pH 8.0, λex 480, λem 550 nm): 0.0102 min⁻¹
- fluorescence response, HDAC3 ([6]; 0.1 μM HDAC3, HEPES pH 8.0, 37°C, 2 h): fluoresced at 550 nm
- fluorescence response, SIRT2 [10]: minimal changes in fluorescence
- fluorescence response, SIRT1 [11]: minimal changes in fluorescence
Compound: GGAK(lac)RHRPra-NH2 [p-H4K16laNBD, H4K16la based fluorogenic probe with O-NBD (nitrobenzofurazan) group conjugated to the C-terminus]
- fluorescence with sole NAD+ or denatured SIRT3 ([5]; control groups): will not affect the fluorescence generating
- fluorescence response, SIRT5 [7]: minimal changes in fluorescence
- fluorescence response, SIRT7 [8]: minimal changes in fluorescence
- fluorescence response, SIRT6 [9]: minimal changes in fluorescence
- new absorption peak after enzymatic reaction ([12]; 0.2 μM SIRT3, 100 μM NAD+, 2 h, HEPES pH 8.0): 482 nm
- absorption peak ([12]; 20 mM HEPES pH 8.0, without enzyme): around 370 nm
- fluorescence emission peak after incubation with SIRT3 and NAD+ ([12]; λex 480 nm, 0.2 μM SIRT3, 100 μM NAD+): 550 nm

- Kd [13]: 92.3 µM
- Kd [14]: 42.2 µM
Compound: H3K9ac peptide

- erased ratio / hydrolytic activity, HPLC [15]: didn’t show any hydrolytic activity
- hydrolytic activity, HPLC [16]: didn’t show any hydrolytic activity
- hydrolytic activity, HPLC [1]: didn’t show any hydrolytic activity
Compound: WKGLGK (L/D-lactic acid) GGAKW [H4K12la, lactyl-lysine H4K12 peptide]

Compound: CC(O)C(=O)[O-].[Na+] (stereo not shown) [sodium lactate]
- induction of lysine lactylation [17]: will induce detectable levels of lysine lactylation

- delactylation activity in words [3]: higher delactylation activity
Compound: WKQLATK (L/D-lactic acid) AARKW [H3K23la, lactyl-lysine H3K23 peptide]

- hydrolytic activity, HPLC [1]: slight hydrolytic activity
- NAD+ consumption overnight in words [18]: consumed much higher level of NAD^+
Compound: QTARK (L/D lactic acid) STGG [H3K9la, lactyl-lysine H3K9 peptide; Trp-flanked version used in HPLC-MS]
